Reference: US20060111381A1, “Amidine compounds” (priority 2002, published 2006)
Where “and” joins values, the source holds several entries; their conditions need not be identical. Equal entries are not always repeated.

Legend:
ICR mice [1] = test: Phenylquinone-induced writhing model in mice (writhes counted in following 5-10 minute period); type: in vivo; settings: for No. of Writhings, Individual: individual mice; for % Inhibition: relative to vehicle group
Description: (§1) Testing on compound KRS-6-48 was carried out under contract by MDS Services—Taiwan Ltd. KRS-6-48 was evaluated for possible analgesic activity in the phenylquinone-induced writhing model in mice (Siegmund et al, 1957). A serial 2-fold dosage variance was used in the test, from 128 mg/kg to 1 mg/kg (8 doses in total). Groups of 3 male or female ICR mice weighing 22±2 g were employed. Variant doses (1, 2, 4, 8, 16, 32, 64 and 128 mg/kg) of test substances were administered intraperitoneally (IP). A vehicle of 2% Tween 80 in 0.9% NaCl was used for the intraperitoneal injection. The control group received vehicle alone. […] A reduction in the number of writhes by 50 percent or more (≧50%) relative to the vehicle-treated group indicated possible analgesic activity.
Testing on compounds KRS-6-41, KRS-6-51, and KRS-6-71 was also carried out under contract by MDS Services—Taiwan Ltd. The study was designed to evaluate the effects of the compounds as analgesics in the phenylquinone-induced writhing assay described in detail in Example 10 (Siegmund et al, 1957).
as §1, with “In each case, a” for “Testing on compound KRS-6-48 was carried out under contract by MDS Services—Taiwan Ltd. KRS-6-48 was evaluated for possible analgesic activity in the phenylquinone-induced writhing model in mice (Siegmund et al, 1957). A”

ICR mice [2] = test: Straub tail behaviour (indicator of CNS activity) in writhing-study mice; settings: any doses (1 to 128 mg/kg IP)

CCC(=Nc1ccccc1CC)NCCCN1CC[C@]23c4c5ccc(O)c4O[C@H]2[C@@H](O)C=CC3[C@H]1C5 (stereo partly drawn) [KRS-6-71, (5α,6α)-7,8-didehydro-4,5-epoxy-17-((N-(2-ethylphenyl)propionamidino)-propyl)morphinan, 3,6-diol]
melting point: 58 to 59 °C | No. of Writhings, Average (ICR mice [1]; 1 mg/kg IP): 18 | No. of Writhings, Individual (ICR mice [1]; 1 mg/kg IP): 24 and 13 and 18 | % Inhibition (ICR mice [1]; 1 mg/kg IP): 22% | No. of Writhings, Average (ICR mice [1]; 2 mg/kg IP): 14 | No. of Writhings, Individual (ICR mice [1]; 2 mg/kg IP): 2 and 12 and 18 | % Inhibition (ICR mice [1]; 2 mg/kg IP): 39% | No. of Writhings, Average (ICR mice [1]; 4 mg/kg IP): 11 | No. of Writhings, Individual (ICR mice [1]; 4 mg/kg IP): 16 (2×) and 2 | % Inhibition (ICR mice [1]; 4 mg/kg IP): 52% | No. of Writhings, Average (ICR mice [1]; 8 mg/kg IP): 11 | No. of Writhings, Individual (ICR mice [1]; 8 mg/kg IP): 0 and 18 and 15 | % Inhibition (ICR mice [1]; 8 mg/kg IP): 52% | No. of Writhings, Average (ICR mice [1]; 16 mg/kg IP): 7 | No. of Writhings, Individual (ICR mice [1]; 16 mg/kg IP): 13 and 0 and 8 | % Inhibition (ICR mice [1]; 16 mg/kg IP): 70% | No. of Writhings, Average (ICR mice [1]; 32 mg/kg IP): 7 | No. of Writhings, Individual (ICR mice [1]; 32 mg/kg IP): 6 and 0 and 15 | % Inhibition (ICR mice [1]; 32 mg/kg IP): 70% | No. of Writhings, Average (ICR mice [1]; 64 mg/kg IP): 1 | No. of Writhings, Individual (ICR mice [1]; 64 mg/kg IP): 0 (2×) and 3 | % Inhibition (ICR mice [1]; 64 mg/kg IP): 96% | No. of Writhings, Average (ICR mice [1]; 128 mg/kg IP): 0 | No. of Writhings, Individual (ICR mice [1]; 128 mg/kg IP): 0 | % Inhibition (ICR mice [1]; 128 mg/kg IP): 100% | Straub tail behaviour (ICR mice [2]): None of the test animals exhibited Straub tail behaviour
